Results from the SangsterLogP compilation.

Test: method code SF-AS, from PMID: 4730594
Settings: pH 7.0

SMILES	logD
Cc1cccc2c([N+](=O)[O-])cc[n+]([O-])c12	1.59
CC(C)(C)c1ccc2c(c1)c([N+](=O)[O-])cc[n+]2[O-]	1.51
O=[N+]([O-])c1cc2ccccc2[n+]([O-])c1	0.56
O=[N+]([O-])c1ccc2ccc[n+]([O-])c2c1	0.36
O=[N+]([O-])c1cccc2c1ccc[n+]2[O-]	0.49
CS(=O)(=O)c1cc[n+]([O-])c2ccccc12	0.12
Cc1c[n+]([O-])c2ccccc2c1[N+](=O)[O-]	1.06
[O-][n+]1ccc(Cl)c2ccccc21	1.08
O=[N+]([O-])c1ccc2c(ccc[n+]2[O-])c1	0.39
O=c1ccn(O)c2ccccc12	-0.47
NC(=O)Cc1cc[n+]([O-])c2ccccc12	-0.11
CC(=O)ON=c1ccn(OC(C)=O)c2ccccc12	1.04
O=[N+]([O-])c1cccc2c1c([N+](=O)[O-])cc[n+]2[O-]	0.95
O=[N+]([O-])c1cc[n+]([O-])c2ccc(Cl)cc12	1.41
Cc1cccc2c1c([N+](=O)[O-])cc[n+]2[O-]	1.36
O=[N+]([O-])c1cc[n+]([O-])c2c(F)cccc12	1
Cc1cc([N+](=O)[O-])c2ccccc2[n+]1[O-]	1.25
CC(=O)ONc1ccnc2ccccc12	0.97
O=[N+]([O-])c1c(Cl)c[n+]([O-])c2ccccc12	1.33
O=[N+]([O-])c1cc[n+]([O-])c2c([N+](=O)[O-])cccc12	0.76
O=[N+]([O-])c1cccc2ccc[n+]([O-])c12	0.04
O=[N+]([O-])c1ccc2c(c1)c([N+](=O)[O-])cc[n+]2[O-]	0.9
O/N=c1/ccn(O)c2ccccc12	0
Cc1ccc2c([N+](=O)[O-])cc[n+]([O-])c2c1	1.42
O=[N+]([O-])c1cc[n+]([O-])c2ccccc12	1.02
CCCCc1ccc2c(c1)c([N+](=O)[O-])cc[n+]2[O-]	2.08
Cc1ccc2c(c1)c([N+](=O)[O-])cc[n+]2[O-]	1.43
